Each block holds one compound with its values, some of them ahead of it. Calls of active or inactive are those of the source. The calls are words filed in the database; no cut-off is given here.
Tests used:
[1] = target: Diacylglycerol kinase alpha (Homo sapiens) (UniProt P23743); experiment: Inhibition of FLAG-tagged DGKa (unknown origin) using lipids and [gamma-32P]-ATP incubated for 15 mins by scintillation counting method
[2] = test system: U-251; experiment: Cytotoxicity in human U251 cells assessed as reduction in cell viability at 25 to 75 uM by alamar blue dye based assay; assay type: functional
[3] = test system: VMM39; experiment: Cytotoxicity in human VMM39 cells assessed as reduction in cell viability at 25 to 150 uM by alamar blue dye based assay; assay type: functional
[4] = Cytotoxicity in human JWL578 cells assessed as reduction in cell viability incubated for 2 to 4 days by Trypan blue exclusion based hemocytometry; assay type: functional
[5] = test system: Astrocyte; experiment: Cytotoxicity against immortalized astrocytes (unknown origin) assessed as reduction in cell viability at >20 uM incubated for 2 to 4 days by Trypan blue exclusion based hemocytometry
[6] = test system: U-251; experiment: Induction of apoptosis in human U251 cells at 10 to 20 uM by Annexin V-PE and 7-AAD staining based flow cytometry; assay type: functional, cell-based
[7] = test system: VMM39; experiment: Induction of apoptosis in human VMM39 cells at 10 to 20 uM by Annexin V-PE and 7-AAD staining based flow cytometry; assay type: functional, cell-based
[8] = test system: U-251; experiment: Induction of apoptosis in human U251 cells at 10 to 20 uM in presence of apoptosis inhibitor ZVAD-FMK by Annexin V-PE and 7-AAD staining based flow cytometry; assay type: functional, cell-based
[9] = test system: VMM39; experiment: Induction of apoptosis in human VMM39 cells at 10 to 20 uM in presence of apoptosis inhibitor ZVAD-FMK by Annexin V-PE and 7-AAD staining based flow cytometry; assay type: functional, cell-based
[10] = test system: U-251; experiment: Induction of autophagy in human U251 cells assessed as LC3-II accumulation at 10 to 20 uM by immunoblot analysis; assay type: functional, cell-based
[11] = test system: U-251; experiment: Induction of autophagy in human U251 cells assessed as LC3-II accumulation at 10 uM in presence of 20 uM chloroquine by immunoblot analysis; assay type: functional, cell-based
[12] = test system: U-251; experiment: Cytotoxicity in human U251 cells assessed as reduction in cell viability at 10 uM in presence of phosphatidic acid incubated for 2 to 4 days by Trypan blue exclusion based hemocytometry; assay type: functional
[13] = species on record: Homo sapiens; experiment: Cytotoxicity in human JWL578 cells assessed as reduction in cell viability at 10 uM in presence of phosphatidic acid incubated for 2 to 4 days by Trypan blue exclusion based hemocytometry; assay type: functional
[14] = target: Diacylglycerol kinase alpha (Homo sapiens) (UniProt P23743); experiment: Inhibition of DGKa in human U251 cells transfected with mTOR promoter assessed as decrease in mTOR promoter activity at 20 uM incubated for 36 to 48 hrs by luciferase reporter gene assay; assay type: cell-based
[15] = target: Diacylglycerol kinase alpha (Homo sapiens) (UniProt P23743); experiment: Inhibition of DGKa in human JWL578 cells transfected with mTOR promoter assessed as decrease in mTOR promoter activity at 20 uM incubated for 36 to 48 hrs by luciferase reporter gene assay; assay type: cell-based
[16] = target: Diacylglycerol kinase alpha (Homo sapiens) (UniProt P23743); experiment: Inhibition of DGKa in human U251 cells transfected with HIF1a promoter assessed as decrease in HIF1a promoter activity at 20 uM incubated for 36 to 48 hrs by luciferase reporter gene assay; assay type: cell-based
[17] = target: Diacylglycerol kinase alpha (Homo sapiens) (UniProt P23743); experiment: Inhibition of DGKa in human U251 cells assessed as HSP60 protein level at 15 uM incubated for 24 hrs by dot-blot proteomics assay relative to baseline; assay type: cell-based; design: scale not given: the % may be the effect or the level left
[18] = target: Diacylglycerol kinase alpha (Homo sapiens) (UniProt P23743); experiment: Inhibition of DGKa in human U251 cells assessed as reduction in P70 S6K phosphorylation at T389/T421 residues at 15 uM incubated for 24 hrs by dot-blot proteomics assay relative to baseline; assay type: cell-based
[19] = target: Diacylglycerol kinase alpha (Homo sapiens) (UniProt P23743); experiment: Inhibition of DGKa in human U251 cells assessed as reduction in p53 phosphorylation at S15 residues at 15 uM incubated for 24 hrs by dot-blot proteomics assay relative to baseline; assay type: cell-based
[20] = target: Diacylglycerol kinase alpha (Homo sapiens) (UniProt P23743); experiment: Inhibition of DGKa in human U251 cells assessed as reduction in p53 phosphorylation at S15 residues at 12.5 to 17.5 uM incubated for 24 hrs by immunoblot analysis; assay type: cell-based
[21] = target: Diacylglycerol kinase alpha (Homo sapiens) (UniProt P23743); experiment: Inhibition of DGKa in human VMM39 cells assessed as reduction in p53 phosphorylation at S15 residues at 12.5 to 17.5 uM incubated for 24 hrs by immunoblot analysis; assay type: cell-based
[22] = test system: U-251; experiment: Antitumor activity against human U251 cells xenografted in athymic nu/nu mouse assessed as increase in mouse survival at 50 mg/kg dosed via daily oral gavage starting 7 days post-tumor implantation and measured up to 50 days post tumor implantation; assay type: functional, organism-based
[23] = test system: GL261; experiment: Antitumor activity against mouse GL261 cells implanted in mouse syngeneic immunocompetent tumor model assessed as reduction in tumor size at 50 mg/kg dosed via daily oral gavage starting 6 days post-tumor implantation and measured up to 100 days post tumor implantation by magnetic resonance imaging analysis; assay type: functional, organism-based
[24] = test system: VMM39; experiment: Antitumor activity against human VMM39 cells xenografted in athymic nu/nu mouse assessed as induction of delay in tumor formation at 50 mg/kg dosed via daily oral gavage; assay type: functional, organism-based
[25] = test system: A-375; experiment: Antitumor activity against human A375 cells xenografted in athymic nu/nu mouse assessed as increase in mouse survival at 50 mg/kg dosed via daily oral gavage starting 6 days post-tumor implantation and measured up to 50 days post tumor implantation; assay type: functional, organism-based
[26] = test system: VMM39; experiment: Antitumor activity against human VMM39 cells xenografted in athymic nu/nu mouse assessed as induction of delay in tumor formation at 10 mg/kg dosed via daily oral gavage; assay type: functional, organism-based
[27] = test system: A-375; experiment: Antitumor activity against human A375 cells xenografted in athymic nu/nu mouse assessed as reduction in tumor volume at 50 mg/kg dosed via daily oral gavage starting 6 days post-tumor implantation and measured up to 50 days post tumor implantation; assay type: functional, organism-based
[28] = test system: GL261; experiment: Antitumor activity against mouse GL261 cells implanted in mouse syngeneic immunocompetent tumor model assessed as reduction in tumor volume at 100 mg/kg dosed via daily oral gavage starting 6 days post-tumor implantation and measured up to 100 days post tumor implantation; assay type: functional, organism-based
[29] = test system: U-251; experiment: Synergistic cytotoxicity in human U251 cells assessed as reduction in cell viability at 7.5 uM in presence of 50 uM TMZ by alamar blue dye based assay; assay type: functional
[30] = test system: VMM39; experiment: Synergistic cytotoxicity in human VMM39 cells assessed as reduction in cell viability at 7.5 uM in presence of 50 uM TMZ by alamar blue dye based assay; assay type: functional
[31] = test system: U-251; experiment: Cytotoxicity in human U251 cells assessed as reduction in cell viability at 2.5 to 17.5 uM by alamar blue dye based assay; assay type: functional
[32] = test system: VMM39; experiment: Cytotoxicity in human VMM39 cells assessed as reduction in cell viability at 2.5 to 22.5 uM by alamar blue dye based assay; assay type: functional
[33] = test system: U-251; experiment: Cytotoxicity in human U251 cells assessed as reduction in cell viability at 10 uM in presence of 20 uM chloroquine incubated for 2 to 4 days by Trypan blue exclusion based hemocytometry; assay type: functional
[34] = test system: GL261; experiment: Cytotoxicity in mouse GL261 cells assessed as reduction in cell viability at 10 uM in presence of 10 uM chloroquine incubated for 2 to 4 days by Trypan blue exclusion based hemocytometry; assay type: functional
[35] = test system: Astrocyte; experiment: Cytotoxicity against immortalized astrocytes (unknown origin) assessed as reduction in cell viability at 10 to 15 uM in presence of 10 uM chloroquine incubated for 2 to 4 days by Trypan blue exclusion based hemocytometry
[36] = test system: VMM39; experiment: Cytotoxicity in human VMM39 cells assessed as reduction in cell viability at 15 uM in presence of 10 uM chloroquine incubated for 2 to 4 days by Trypan blue exclusion based hemocytometry; assay type: functional
[37] = test system: B16; experiment: Cytotoxicity in mouse B16 cells assessed as reduction in cell viability at 10 uM in presence of 5 uM chloroquine incubated for 2 to 4 days by Trypan blue exclusion based hemocytometry; assay type: functional
[38] = species on record: Homo sapiens; experiment: Cytotoxicity in G528 cells (unknown origin) assessed as reduction in cell viability at 10 to 15 uM in presence of 10 uM chloroquine incubated for 2 to 4 days by Trypan blue exclusion based hemocytometry; assay type: functional
[39] = species on record: Homo sapiens; experiment: Cytotoxicity in G34 cells (unknown origin) assessed as reduction in cell viability at 10 uM in presence of 5 uM chloroquine incubated for 2 to 4 days by Trypan blue exclusion based hemocytometry; assay type: functional
[40] = Selectivity ratio of cytotoxicity against human mesenchymal GBM cells to cytotoxicity against human non-mesenchymal cells at 1 to 30 uM; assay type: functional
[41] = test system: Homo sapiens; experiment: Antitumor activity against human G2 cells xenografted in orally dosed mouse assessed as increase in median mouse survival; assay type: functional, organism-based
[42] = species on record: Homo sapiens; experiment: Cytotoxicity in human GB816 cells with TNFalpha-induced proneural-to- mesenchymal transition at 8 uM; assay type: functional, cell-based
[43] = species on record: Homo sapiens; experiment: Cytotoxicity in human GB464 cells with TNFalpha-induced proneural-to- mesenchymal transition at 8 uM; assay type: functional, cell-based
[44] = test system: A549; experiment: Cytotoxicity in human A549 cells with TNFalpha-induced epithelial-mesenchymal transition at 15 uM; assay type: functional, cell-based
[45] = species on record: Homo sapiens; experiment: Cytotoxicity in human MPanc96 cells with TNFalpha-induced epithelial-mesenchymal transition at 15 uM; assay type: functional, cell-based
[46] = target: Diacylglycerol kinase alpha (Homo sapiens) (UniProt P23743); experiment: Inhibition of DGKa in human G2 cells assessed as decrease in NF-kappaB expression under 4 Gy irradiation by luciferase reporter gene assay; assay type: cell-based
[47] = target: Diacylglycerol kinase alpha (Homo sapiens) (UniProt P23743); experiment: Inhibition of DGKa in human G88 cells assessed as decrease in NF-kappaB expression under 4 Gy irradiation by luciferase reporter gene assay; assay type: cell-based
[48] = target: Diacylglycerol kinase alpha (Homo sapiens) (UniProt P23743); experiment: Inhibition of DGKa in human G88 cells assessed as decrease in RhoA expression by ELISA; assay type: cell-based
[49] = target: Diacylglycerol kinase alpha (Homo sapiens) (UniProt P23743); experiment: Inhibition of DGKa in human G2 cells assessed as decrease in RhoA expression by ELISA; assay type: cell-based
[50] = target: Diacylglycerol kinase alpha (Homo sapiens) (UniProt P23743); experiment: Inhibition of DGKa in human G2 cells assessed as decrease in GGTase-1 by measuring increase in unprenylated ras-related protein RaplA expression by immunoblot analysis; assay type: cell-based
[51] = target: Diacylglycerol kinase alpha (Homo sapiens) (UniProt P23743); experiment: Inhibition of DGKa in human G88 cells assessed as decrease in GGTase-1 by measuring increase in unprenylated ras-related protein RaplA expression by immunoblot analysis; assay type: cell-based
[52] = species on record: Homo sapiens; experiment: Increase in PDGFRA expression in human G2 cells at 3 uM by immunoblot analysis; assay type: functional, cell-based
[53] = species on record: Homo sapiens; experiment: Increase in PDGFRA expression in human G88 cells at 3 uM by immunoblot analysis; assay type: functional, cell-based
[54] = Synergistic cytotoxicity in human G2 cells assessed as combination index at 2 uM in presence of imatinib incubated for 5 days; assay type: functional
[55] = Synergistic cytotoxicity in human G88 cells assessed as combination index at 2 uM in presence of imatinib incubated for 5 days; assay type: functional

Chain of Diacylglycerol kinase alpha (Homo sapiens) (P23743 whole entry): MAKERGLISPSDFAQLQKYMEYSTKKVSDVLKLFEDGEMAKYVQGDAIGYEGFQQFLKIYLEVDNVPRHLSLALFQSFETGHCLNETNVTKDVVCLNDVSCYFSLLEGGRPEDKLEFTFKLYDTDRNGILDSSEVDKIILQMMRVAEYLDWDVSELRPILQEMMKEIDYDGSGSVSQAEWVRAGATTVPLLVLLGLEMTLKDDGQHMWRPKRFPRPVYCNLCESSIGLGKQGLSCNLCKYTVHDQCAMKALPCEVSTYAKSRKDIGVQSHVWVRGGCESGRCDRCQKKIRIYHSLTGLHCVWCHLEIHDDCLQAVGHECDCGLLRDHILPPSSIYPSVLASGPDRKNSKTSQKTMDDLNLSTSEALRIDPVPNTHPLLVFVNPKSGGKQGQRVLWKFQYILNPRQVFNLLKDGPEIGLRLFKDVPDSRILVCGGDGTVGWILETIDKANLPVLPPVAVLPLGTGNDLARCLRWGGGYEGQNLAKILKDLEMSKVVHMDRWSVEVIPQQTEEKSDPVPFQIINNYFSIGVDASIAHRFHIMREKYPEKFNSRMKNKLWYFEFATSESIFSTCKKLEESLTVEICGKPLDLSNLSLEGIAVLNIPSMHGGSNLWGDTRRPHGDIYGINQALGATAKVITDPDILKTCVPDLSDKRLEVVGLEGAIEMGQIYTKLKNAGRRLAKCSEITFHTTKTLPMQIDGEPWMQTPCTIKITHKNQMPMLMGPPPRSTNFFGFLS

- inhibition [1]: Dose-dependent effect
SMILES: Cc1nc2sccn2c(=O)c1CCN1CCC(=C(c2ccccc2)c2ccc(F)cc2)CC1

SMILES: Cn1nnc2c(C(N)=O)ncn2c1=O
- Activity [2]: inactive
- Activity [3]: inactive

- inhibition [1]: Dose-dependent effect
- inhibition [14]: Active
- inhibition [15]: Active
- inhibition [16]: Active
- Activity [17]: 10%
- inhibition [18]: Active
- inhibition [19]: Active
- inhibition [20]: Active
- inhibition [21]: Active
- inhibition [46]: Active
- inhibition [47]: Active
- inhibition [48]: Active
- inhibition [49]: Active
- inhibition [50]: Active
- inhibition [51]: Active
SMILES: Cc1nc2sccn2c(=O)c1CCN1CCC(=C(c2ccc(F)cc2)c2ccc(F)cc2)CC1 [RITANSERIN]
- IC50 [4]: 5 to 10 µM
- Activity [5]: Non-Toxic
- Activity [6]: Active
- Activity [7]: Active
- Activity [8]: Active
- Activity [9]: Active
- Activity [10]: Active
- Activity [11]: Active
- Activity [12]: inactive
- Activity [13]: inactive
- Activity [22]: Active
- Activity [23]: Active
- Activity [24]: Active
- Activity [25]: Active
- Activity [26]: inactive
- Activity [27]: Active
- Activity [28]: Active
- Activity [29]: <=90%
- Activity [30]: <=90%
- Activity [31]: inactive
- Activity [32]: inactive
- Activity [33]: Active
- Activity [34]: Active
- Activity [35]: Non-Toxic
- Activity [36]: Active
- Activity [37]: Active
- Activity [38]: Active
- Activity [39]: Active
- Ratio [40]: 3 - 4
- Activity [41]: Active
- Activity [42]: Active
- Activity [43]: Active
- Activity [44]: Active
- Activity [45]: Active
- Activity [52]: Active
- Activity [53]: Active
- CI [54]: 0.24
- CI [55]: 0.25
